Results as given in US20240308987A1, “SMALL MOLECULE INHIBITOR AGAINST NASOPHARYNGEAL CARCINOMA, PREPARATION METHOD AND APPLICATION THEREOF” (SHENZHEN BAY LABORATORY, priority 2021, published 2024).

Tested on: C666-1 cells
Assay: C666-1 Cell Viability Assay (Resazurin cytotoxicity test)
Assay type: cell-based
Details: Homo sapiens, C6661, EB virus-positive C666-1 cells, 72 hours treatment, 100-0.78 micromole/L, read-out: Inhibitory Rate
Description: In order to evaluate the inhibitory effect of the small molecular compound of the present disclosure on EBNA1 at the cellular level, a cytotoxicity test was performed.
As mentioned in the Background of the present disclosure, nasopharyngeal carcinoma is a kind of disease highly associated with latent infection of EB virus. EB virus in latent state only expresses limited proteins to maintain its genome replication, among which EBNA1 protein is an essential functional protein. Studies have confirmed that inhibition of EBNA1 can reduce the proliferation of the corresponding nasopharyngeal carcinoma cells or kill them. Therefore, EB virus-positive nasopharyngeal carcinoma tumor cells (C666-1 cells) are selected for test to verify the effect of the small molecular compound of the present disclosure.
During testing, 100 microliters of different cell lines were inoculated onto a transparent 96-well plate, and 5×10^3 cells were inoculated in each well for C666-1 cells. After the cells were cultured in an incubator under […] at 37° C. for 24 hours, 10 microliters of compound with a concentration ranging from 1 mmol/L to 7.8 micromol/L were added to each well (8 points, double dilution, the final concentration was 100-0.78 micromole/L), and treated in the incubator under carbon dioxide at 37° C. for 72 hours. Cell viability was assessed using the redox indicator Resazurin. After addition of 10 microliters of 600 micromole/liter Resazurin to each well and incubation at 37° C. for 3 hours. Using a Tecan microplate reader, the fluorescence signals were detected at an […]. A software was used to fit the inhibition curve and calculate half-maximal effect concentration (EC50). The selectivity of compound activity was assessed by comparing the EC50 values of EB virus-positive and EB virus-negative cell lines.

SMILES	EC50
O=C(Nc1ccc(OC2CN(c3cccc(C(=O)NO)c3-n3cccc3)C2)cc1)Nc1cccc(C(F)(F)F)c1 [Example 10b, N-hydroxy-2-(1H-pyrrol-1-yl)-3-(3-(4-(3-(3-(trifluoromethyl)phenyl)ureido)phenoxy)azetidin-1-yl) benzamide]	1 to 10 µM
COC(=O)c1cccc(N2CC(Oc3ccc(COc4ncccn4)cc3)C2)c1-n1cccc1 [Example 11, methyl 3-(3-(4-((pyrimidin-2-yloxy)methyl)phenoxy)azetidin-1-yl)-2-(1H-pyrrol-1-yl) benzoate]	> 50 µM
O=C(O)c1cccc(N2CC(Oc3ccc(COc4ncccn4)cc3)C2)c1-n1cccc1 [Example 11a, 3-(3-(4-((pyrimidin-2-yloxy)methyl)phenoxy)azetidin-1-yl)-2-(1H-pyrrol-1-yl) benzoic acid]	> 50 µM
COC(=O)c1cccc(N2CC(Oc3ccc(COc4ccccn4)cc3)C2)c1-n1cccc1 [Example 12, methyl 3-(3-(4-((pyridin-2-yloxy)methyl)phenoxy)azetidin-1-yl)-2-(1H-pyrrol-1-yl) benzoate]	> 50 µM
O=C(O)c1cccc(N2CC(Oc3ccc(COc4ccccn4)cc3)C2)c1-n1cccc1 [Example 12a, 3-(3-(4-((pyridin-2-yloxy)methyl)phenoxy)azetidin-1-yl)-2-(1H-pyrrol-1-yl) benzoic acid]	> 50 µM
COC(=O)c1cccc(N2CC(Oc3ccc(COc4cnccn4)cc3)C2)c1-n1cccc1 [Example 13, methyl 3-(3-(4-((pyrazin-2-yloxy)methyl)phenoxy)azetidin-1-yl)-2-(1H-pyrrol-1-yl) benzoate]	> 50 µM
O=C(O)c1cccc(N2CC(Oc3ccc(COc4cnccn4)cc3)C2)c1-n1cccc1 [Example 13a, 3-(3-(4-((pyrazin-2-yloxy)methyl)phenoxy)azetidin-1-yl)-2-(1H-pyrrol-1-yl) benzoic acid]	> 50 µM
COC(=O)c1cccc(N2CC(Oc3ccc(COc4cncnc4)cc3)C2)c1-n1cccc1 [Example 14, methyl 3-(3-(4-((pyrimidin-5-yloxy)methyl)phenoxy)azetidin-1-yl)-2-(1H-pyrrol-1-yl) benzoate]	1 to 10 µM
O=C(O)c1cccc(N2CC(Oc3ccc(COc4cncnc4)cc3)C2)c1-n1cccc1 [Example 14a, 3-(3-(4-((pyrimidin-5-yloxy)methyl)phenoxy)azetidin-1-yl)-2-(1H-pyrrol-1-yl) benzoic acid]	1 to 10 µM
O=C(NO)c1cccc(N2CC(Oc3ccc(COc4cncnc4)cc3)C2)c1-n1cccc1 [Example 14b, N-hydroxy-3-(3-(4-((pyrimidin-5-yloxy)methyl)phenoxy)azetidin-1-yl)-2-(1H-pyrrol-1-yl) benzamide]	1 to 10 µM
COC(=O)c1cccc(N2CC(Oc3ccc(COc4cccnc4)c(C)c3)C2)c1-n1cccc1 [Example 15, methyl 3-(3-(3-methyl-4-((pyridin-3-yloxy)methyl)phenoxy)azetidin-1-yl)-2-(1H-pyrrol-1-yl) benzoate]	10 to 50 µM
Cc1cc(OC2CN(c3cccc(C(=O)O)c3-n3cccc3)C2)ccc1COc1cccnc1 [Example 15a, 3-(3-(3-methyl-4-((pyridin-3-yloxy)methyl)phenoxy)azetidin-1-yl)-2-(1H-pyrrol-1-yl) benzoic acid]	10 to 50 µM
COC(=O)c1cccc(N2CC(Oc3ccc(COc4cccnc4)cc3C)C2)c1-n1cccc1 [Example 16, methyl 3-(3-(2-methyl-4-((pyridin-3-yloxy)methyl)phenoxy)azetidin-1-yl)-2-(1H-pyrrol-1-yl) benzoate]	10 to 50 µM
Cc1cc(COc2cccnc2)ccc1OC1CN(c2cccc(C(=O)O)c2-n2cccc2)C1 [Example 16a, 3-(3-(2-methyl-4-((pyridin-3-yloxy)methyl)phenoxy)azetidin-1-yl)-2-(1H-pyrrol-1-yl) benzoic acid]	> 50 µM
COC(=O)c1cccc(N2CC(Oc3ccc(COc4cccnc4)cc3)C2)c1-c1ccccc1 [Example 17, methyl 6-(3-(4-((pyridin-3-yloxy)methyl)phenoxy)azetidin-1-yl)-[1,1′-biphenyl]-2-carboxylate]	1 to 10 µM
O=C(O)c1cccc(N2CC(Oc3ccc(COc4cccnc4)cc3)C2)c1-c1ccccc1 [Example 17a, 6-(3-(4-((pyridin-3-yloxy)methyl)phenoxy)azetidin-1-yl)-[1,1′-biphenyl]-2-carboxylic acid]	1 to 10 µM
O=C(NO)c1cccc(N2CC(Oc3ccc(COc4cccnc4)cc3)C2)c1-c1ccccc1 [Example 17b, N-hydroxy-6-(3-(4-((pyridin-3-yloxy)methyl)phenoxy)azetidin-1-yl)-[1,1′-biphenyl]-2-carboxamide]	1 to 10 µM
COC(=O)c1cccc(N2CC(Oc3ccc(COc4cccnc4)cc3)C2)c1-c1cccc(Cl)c1 [Example 18, methyl 3′-chloro-6-(3-(4-((pyridin-3-yloxy)methyl)phenoxy)azetidin-1-yl)-[1,1′-biphenyl]-2-carboxylate]	1 to 10 µM
COC(=O)c1cccc(N2CC(Oc3ccc(COc4cccnc4)c(Cl)c3)C2)c1-n1cccc1 [Example 19, methyl 3-(3-(3-chloro-4-((pyridin-3-yloxy)methyl)phenoxy)azetidin-1-yl)-2-(1H-pyrrol-1-yl) benzoate]	10 to 50 µM
O=C(O)c1cccc(N2CC(Oc3ccc(COc4cccnc4)c(Cl)c3)C2)c1-n1cccc1 [Example 19a, 3-(3-(3-chloro-4-((pyridin-3-yloxy)methyl)phenoxy)azetidin-1-yl)-2-(1H-pyrrol-1-yl) benzoic acid]	10 to 50 µM
COC(=O)c1cccc(N2CC(Oc3ccc(COc4cccnc4)c(F)c3)C2)c1-n1cccc1 [Example 20, methyl 3-(3-(3-fluoro-4-((pyridin-3-yloxy)methyl)phenoxy)azetidin-1-yl)-2-(1H-pyrrol-1-yl) benzoate]	1 to 10 µM
O=C(O)c1cccc(N2CC(Oc3ccc(COc4cccnc4)c(F)c3)C2)c1-n1cccc1 [Example 20a, 3-(3-(3-fluoro-4-((pyridin-3-yloxy)methyl)phenoxy)azetidin-1-yl)-2-(1H-pyrrol-1-yl) benzoic acid]	10 to 50 µM
COC(=O)c1cccc(N2CC(Oc3cccc(COc4cccnc4)c3)C2)c1-n1cccc1 [Example 21, methyl 3-(3-(3-((pyridin-3-yloxy)methyl)phenoxy)azetidin-1-yl)-2-(1H-pyrrol-1-yl) benzoate]	10 to 50 µM
COC(=O)c1cccc(C#Cc2ccc(NC(=O)Nc3cccnc3)c(O)c2)c1-c1ccccc1 [Example 22, methyl 6-((3-hydroxy-4-(3-(pyridin-3-yl)ureido)phenyl)ethynyl)-[1,1′-biphenyl]-2-carboxylate]	< 1 µM
COC(=O)c1cccc(N2CC(Oc3ccc(CNc4cccnc4)cc3)C2)c1-n1cccc1 [Example 23, methyl 3-(3-(4-((pyridin-3-ylamino)methyl)phenoxy)azetidin-1-yl)-2-(1H-pyrrol-1-yl) benzoate]	10 to 50 µM
O=C(O)c1cccc(N2CC(Oc3ccc(CNc4cccnc4)cc3)C2)c1-n1cccc1 [Example 23a, 3-(3-(4-((pyridin-3-ylamino)methyl)phenoxy)azetidin-1-yl)-2-(1H-pyrrol-1-yl) benzoic acid]	10 to 50 µM
O=C(NO)c1cccc(N2CC(Oc3ccc(CNc4cccnc4)cc3)C2)c1-n1cccc1 [Example 23b, N-hydroxy-3-(3-(4-((pyridin-3-ylamino)methyl)phenoxy)azetidin-1-yl)-2-(1H-pyrrol-1-yl) benzamide]	< 1 µM
